Measured values published in patent US7238714B2, “Aryl or heteroaryl amide compounds” (Pfizer Japan, Inc., priority 2003, dated 2007).

Legend:
[1] = molecular target: T1, hEP4 (Homo sapiens, UniProt P35408); test: cAMP assay in human EP4 transfectant (functional assay); type: cell-based; design: expressed in transfected cells; host or cells: HEK293 (hEP4 cells), selected with geneticin; details: vs 1 nM PGE2; for IC50: cAMP in HEK293 cells expressing human EP4
Experimental: cAMP Assay in Human EP4 Transfectant
HEK293 cells expressing human EP4 receptors (hEP4 cells) are maintained in DMEM containing 10% FBS and 500 μg/ml geneticin. For harvesting hEP4 cells, culture medium is aspirated and cells in 75 cm^2 flask are washed with 10 ml of phosphate buffered saline (PBS). Another 10 ml of PBS is added to the cells and incubated for 20 min at room temperature. Human EP4 cells are harvested by pipetting and centrifuged at 300×g for 4 min. Cells are resuspended in DMEM without neutral red at a density of 7×10^5 cells/ml containing 0.2 mM IBMX (PDE inhibitor), 1 nM PGE2 and test compounds in PCR-tubes, and incubated at 37° C. for 10 min. The reaction is stopped by heating at 100° C. for 10 min with thermal cycler. Concentration of cAMP in reaction mixtures is determined with SPA cAMP Kit (Amersham) or cAMP Screen™ (Applied Biosystems) according to the manufacture's instruction. • Reference: Eur. J. Pharmacol. 340 (1997) 227–241

[2] = molecular target: T1, hEP4; test: Human EP receptor cell membrane binding assay ([3H]-PGE2); design: expressed in transfected cells; membrane fraction; details: [3H]-PGE2 binding to membranes of human EP4/HEK293 transfectant; acidic and hypotonic buffer condition, MME buffer
From the text: Human EP Receptor Cell Membrane Binding Assay:
Stable Expression of Human EP1, 2, 3 and 4 Receptors in the Human Embryonic Kidney (HEK293) Cell Line
The cDNA clones of human EP1, 2, 3 and 4 receptors are obtained by polymerase chain reaction (PCR) from […] kidney or heart cDNA libraries (Clontech). Human embryonic kidney cells (HEK 293) are stably transfected with expression vectors for human EP1, 2, 3 and 4 receptors in according to the method described in the article; the journal of biological chemistry vol. 271 No. 39, pp 23642–23645.
Preparation of Membrane Fraction:
The EP1, 2, 3 and 4 transfectant are grown in Dulbecco's modified Eagle's medium containing 10% fetal bovine serum, 50 U/ml penicillin, 50 μg/ml streptomycin and 500 μg/ml G418 (selection medium) at 37° C. in a humidified atmosphere of 5% CO2 in air. For the membrane preparation, cells are harvested with phosphate buffered saline (PBS) and centrifuged at 400×g for 5 min. The pellet is suspended with child (4° C.) PBS containing 1/100 volume of protease inhibitor cocktail (SIGMA) (1 mM (4-(2-aminoethyl)-benzenesulfonyl fluoride (AEBSF)), 0.8 μM Aprotinin, 22 μM Leupeptin, 40 μM Bestatin, 15 μM Pepstatin A and 14 μM E-64). Cells are lysed with ultrasonic cell disrupter for 60-sec sonication. Then cell mixtures are centrifuged at 1,000×g for 10 minutes. The supernatant μs centrifuged at 160,000×g for 30 minutes at 4° C. The pellet is resuspended in assay buffer (10 mM 2-morpholinoeth-anesulfonic acid (MES)-KOH, 1 mM etylenediamine tetra-acetic acid (EDTA), 10 mM MgCl2, pH 6.0), and protein concentration is determined by Bradford method (Bio-Rad assay). This membrane preparation is stored at −80° C. freezer until use for binding assay.
[^3H]-PGE2 membrane binding assays are performed in the reaction mixture of 10 mM MES/KOH (pH6.0), 10 mM MgCl2, 1 mM EDTA, 1 nM [^3H]-PGE2 (Amersham TRK431, 164 Ci/mmol), 2˜10 μg of protein from membrane fraction (human EP1, 2, 3 and 4/HEK293 transfectant) and test compound (total volume is 0.1 ml in 96 well polypropylene plate). Incubation is conducted for 60 min at room temperature prior to separation of the bound and free radioligand by rapid filtration through glass fiber filters (Printed Filtermat B, 1205-404, glass fiber, double thickness, size 102×258 mm, Wallac inc., presoaked in 0.2% polyethylenimine). Filters are washed with assay buffer and the residual [^3H]-PGE2 bound to the filter is determined by liquid scintillation counter (1205 Betaplate™). Specific binding is defined as the difference between total binding and nonspecific binding which is determined in the presence of 10 μM PGE2.

T1 sequence (P35408 whole entry): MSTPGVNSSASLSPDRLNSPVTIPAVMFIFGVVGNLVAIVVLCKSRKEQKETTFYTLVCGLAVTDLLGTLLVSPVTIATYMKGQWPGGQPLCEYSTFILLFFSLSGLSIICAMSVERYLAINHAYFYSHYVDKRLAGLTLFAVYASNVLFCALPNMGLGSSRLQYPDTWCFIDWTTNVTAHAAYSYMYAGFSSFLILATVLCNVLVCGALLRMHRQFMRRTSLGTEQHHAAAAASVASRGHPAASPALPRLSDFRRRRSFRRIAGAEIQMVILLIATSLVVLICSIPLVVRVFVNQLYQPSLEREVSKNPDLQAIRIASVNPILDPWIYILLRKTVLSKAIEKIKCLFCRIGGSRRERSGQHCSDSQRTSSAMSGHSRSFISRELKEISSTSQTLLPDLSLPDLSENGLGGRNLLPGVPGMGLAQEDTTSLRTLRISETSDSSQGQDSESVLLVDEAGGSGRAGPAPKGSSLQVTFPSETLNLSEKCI

SMILES | IC50 [1] [nM] | Ki [2] [nM] | inhibition at 5 µM ([1]; @ 5000 nM, read-out: functional assay human EP4 % Inh.) [%]
O=C(O)c1ccc(CNC(=O)c2cc(C(F)(F)F)cnc2Oc2ccc(F)cc2)cc1 [Example 56, 4-[({[2-(4-FLUOROPHENOXY)-5-(TRIFLUOROMETHYL)PYRIDIN-3-YL]CARBONYL}AMINO)METHYL]BENZOIC ACID] | 820 | 20 | 
N#Cc1cnc(Oc2ccc(F)cc2)c(C(=O)NCc2ccc(C(=O)O)cc2)c1 [Example 57, 4-[({[5-CYANO-2-(4-FLUOROPHENOXY)PYRIDIN-3-YL]CARBONYL}AMINO)METHYL]BENZOIC ACID] | 1800 | 92 | 75
O=C(NCc1ccc(-c2nn[nH]n2)cc1)c1cc(Cl)cnc1Oc1ccc(F)cc1 [Example 74, 5-CHLORO-2-(4-FLUOROPHENOXY)-N-[4-(2H-TETRAZOL-5-YL)BENZYL]NICOTINAMIDE] | 140 | 4 | 
O=C(NCc1ccc(-c2nn[nH]n2)cc1)c1cc(Cl)ccc1Oc1ccc(F)cc1 [Example 76, 5-CHLORO-2-(4-FLUOROPHENOXY)-N-[4-(2H-TETRAZOL-5-YL)BENZYL]BENZAMIDE] | 100 | 1.8 | 

Second part, the compound after the results:

IC50 [1] [nM] | Ki [2] [nM] | inhibition at 5 µM ([1]; @ 5000 nM, read-out: functional assay human EP4 % Inh.) [%] | SMILES
28 | 0.3 |  | C[C@H](NC(=O)c1cc(Cl)cnc1Oc1cccc(-c2nccs2)c1)c1ccc(C(=O)O)cc1 [Example 45, 4-{(1S)-[({5-CHLORO-2-[3-(1,3-THIAZOL-2-YL)PHENOXY]PYRIDIN-3-YL}CARBONYL)AMINO]ETHYL}BENZOIC ACID]
19 | 1 |  | C[C@H](NC(=O)c1cc(Cl)cnc1Oc1cccc(F)c1)c1ccc(C(=O)O)cc1 [Example 48, 4-[(1S)-1-({[5-CHLORO-2-(3-FLUOROPHENOXY)PYRIDIN-3-YL]CARBONYL}AMINO)ETHYL]BENZOIC ACID]
20 | 0.7 |  | C[C@H](NC(=O)c1cc(Cl)cnc1Oc1ccc(F)c(F)c1)c1ccc(C(=O)O)cc1 [Example 55, 4-[(1S)-1-({[5-CHLORO-2-(3,4-DIFLUOROPHENOXY)PYRIDIN-3-YL]CARBONYL}AMINO)ETHYL]BENZOIC ACID]
43 | 2.4 |  | C[C@H](NC(=O)c1cc(Cl)ccc1Oc1ccc(F)cc1)c1ccc(C(=O)O)cc1 [Example 68, 4-((1S)-1-{[5-CHLORO-2-(4-FLUOROPHENOXY)BENZOYL]AMINO}ETHYL)BENZOIC ACID]
21 | 0.7 |  | C[C@H](NC(=O)c1cc(Cl)cnc1Oc1cccc(F)c1)c1ccc(C(=O)NS(=O)(=O)c2cccc(Cl)c2)cc1 [Example 79, 5-CHLORO-N-{(1S)-1-[4-({[(3-CHLOROPHENYL)SULFONYL]AMINO}CARBONYL)PHENYL]ETHYL}-2-(3-FLUOROPHENOXY)NICOTINAMIDE]
3.6 | 0.7 |  | C[C@H](NC(=O)c1cc(Cl)ccc1Cc1cccc(Cl)c1)c1ccc(C(=O)O)cc1 [Example 148, 4-((1S)-1-{[5-CHLORO-2-(3-CHLOROBENZYL)BENZOYL]AMINO}ETHYL)BENZOIC ACID]
